The values that follow are results of earlier work, collected in patent US20100112105A1, “Antimicrobial efficacy of aframomum Melegueta extract against propionibacterium acnes” (ACCESS BUSINESS GROUP INTERNATIONAL LLC, priority 2008, published 2010).

The structures appear in SMILES notation.

This data set relates to Mycobacterium chelonei, M. intracellulare, M. smegmatis, and M. xenopi. As to conditions: Galal, Pharmaceutical Biology 1996.
As to `CCCCCCCC(=O)CCc1ccc(O)c(OC)c1` [6-paradol], the activity against mycobacteria result is recorded as “active”.

On to `COc1cc(CCC(C)=O)ccc1O` [gingerone], for which the activity against mycobacteria entry was “inactive”.

In the case of `CCCCC/C=C/C(=O)CCc1ccc(O)c(OC)c1` [6-shogaol], the activity against mycobacteria entry is “active”.
